In PubChem BioAssay AID224 (DTP/NCI, 2004):
Values joined by “and” are separate entries in the source; they are usually repeats but may differ in a detail not shown here. Equal values may be shown once. Toxic doses and inconclusive results are not listed. Rule for the calls: active = survival T/C of 150% or more; inactive = T/C below 125% in these data.

System: P335 leukemia ip, BDF1 mice, survival T/C %
Assay: NCI In Vivo Anticancer Drug Screen. Data for tumor model P335 Leukemia (intraperitoneal) in B6D2F1 (BDF1) mice
Settings: endpoint: mean survival time, higher = longer survival
Experimental: The antitumor activity of compounds was measured in mice bearing transplantable tumors. Survival or tumor size were measured and the results are expressed as the measurement made in the treated group (T) divided by the measurement made in the vehicle treated control group (C). The tumor model used in this assay is P335 Leukemia (intraperitoneal) in B6D2F1 (BDF1) mice

[1] = dose: 18.75 mg/kg/injection, schedule: Q01DX Z (ip), vehicle: carboxymethylcellulose (CMC)
[2] = dose: 37.5 mg/kg/injection, schedule: Q01DX Z (ip), vehicle: carboxymethylcellulose (CMC)
[3] = dose: 75.0 mg/kg/injection, schedule: Q01DX Z (ip), vehicle: carboxymethylcellulose (CMC)
[4] = dose: 25.0 mg/kg/injection, schedule: Q01DX Z (ip), vehicle: water
[5] = dose: 50.0 mg/kg/injection, schedule: Q01DX Z (ip), vehicle: carboxymethylcellulose (CMC)
[6] = dose: 0.31 mg/kg/injection, schedule: Q01DX Z (ip), vehicle: carboxymethylcellulose (CMC)
[7] = dose: 0.62 mg/kg/injection, schedule: Q01DX Z (ip), vehicle: carboxymethylcellulose (CMC)
[8] = dose: 1.25 mg/kg/injection, schedule: Q01DX Z (ip), vehicle: carboxymethylcellulose (CMC)
[9] = dose: 8.0 mg/kg/injection, schedule: Q01DX Z (ip), vehicle: carboxymethylcellulose (CMC)
[10] = dose: 16.0 mg/kg/injection, schedule: Q01DX Z (ip), vehicle: carboxymethylcellulose (CMC)
[11] = dose: 31.0 mg/kg/injection, schedule: Q01DX Z (ip), vehicle: carboxymethylcellulose (CMC)
[12] = dose: 125.0 mg/kg/injection, schedule: Q01DX Z (ip), vehicle: carboxymethylcellulose (CMC)
[13] = dose: 2.0 mg/kg/injection, schedule: Q01DX Z (sc), vehicle: steriod suspending solution
[14] = dose: 4.0 mg/kg/injection, schedule: Q01DX Z (sc), vehicle: steriod suspending solution
[15] = dose: 8.0 mg/kg/injection, schedule: Q01DX Z (sc), vehicle: steriod suspending solution
[16] = dose: 16.0 mg/kg/injection, schedule: Q01DX Z (sc), vehicle: steriod suspending solution

Measured: T/C

O=C(Nc1ccc(C2=NCCN2)cc1)c1cccc(C(=O)Nc2ccc(C3=NCCN3)cc2)c1
inactive: dose: 9.4 mg/kg/injection, schedule: Q01DX Z (ip), vehicle: carboxymethylcellulose (CMC) 98 % of control | [1] 114 % of control | [2] 123 % of control | [3] 98 % of control

CN(C)c1ccc(/C=C/c2ccnc3ccccc23)cc1
inactive: dose: 1.6 mg/kg/injection, schedule: Q01DX Z (ip), vehicle: carboxymethylcellulose (CMC) 94 % of control | dose: 3.1 mg/kg/injection, schedule: Q01DX Z (ip), vehicle: carboxymethylcellulose (CMC) 89 % of control | dose: 6.2 mg/kg/injection, schedule: Q01DX Z (ip), vehicle: water 100 % of control | dose: 6.25 mg/kg/injection, schedule: Q01DX Z (ip), vehicle: carboxymethylcellulose (CMC) 90 % of control and 105 % of control | dose: 12.5 mg/kg/injection, schedule: Q01DX Z (ip), vehicle: water 95 % of control | [4] 92 % of control | [5] 118 % of control

N#CCSc1ncnc2nc[nH]c12
inactive: [5] 93 % of control | dose: 100.0 mg/kg/injection, schedule: Q01DX Z (ip), vehicle: carboxymethylcellulose (CMC) 93 % of control | dose: 200.0 mg/kg/injection, schedule: Q01DX Z (ip), vehicle: methylcellulose (MC) 91 % of control

CC/C(=C(/CC)c1ccc(O)cc1)c1ccc(O)cc1
inactive: dose: 15.6 mg/kg/injection, schedule: Q01DX Z (sc), vehicle: steriod suspending solution 91 % of control

CCN(CC)c1ccc2cc3ccc(=[N+](CC)CC)cc-3oc2c1
inactive: [6] 87 % of control | [7] 97 % of control and 98 % of control | [8] 108 % of control and 123 % of control

COc1ccc(/C=N/NC(N)=S)cc1
inactive: [1] 115 % of control | [2] 108 % of control | [3] 106 % of control | dose: 150.0 mg/kg/injection, schedule: Q01DX Z (ip), vehicle: carboxymethylcellulose (CMC) 96 % of control | dose: 300.0 mg/kg/injection, schedule: Q01DX Z (ip), vehicle: carboxymethylcellulose (CMC) 115 % of control | dose: 300.0 mg/kg/injection, schedule: Q01DX Z (ip), vehicle: saline 94 % of control | dose: 600.0 mg/kg/injection, schedule: Q01DX Z (ip), vehicle: saline 96 % of control

NC(N)=Nc1nc2ccccc2o1
inactive: dose: 2.0 mg/kg/injection, schedule: Q01DX Z (ip), vehicle: carboxymethylcellulose (CMC) 92 % of control | [9] 90 % of control | [10] 90 % of control | [11] 94 % of control | dose: 63.0 mg/kg/injection, schedule: Q01DX Z (ip), vehicle: carboxymethylcellulose (CMC) 94 % of control | [12] 86 % of control

Nc1ncnc2c1ccn2C1OC(CO)C(O)C1O (configuration not stated)
inactive: dose: 0.08 mg/kg/injection, schedule: Q01DX Z (ip), vehicle: carboxymethylcellulose (CMC) 110 % of control | dose: 0.16 mg/kg/injection, schedule: Q01DX Z (ip), vehicle: carboxymethylcellulose (CMC) 97 % of control | [6] 95 % of control | dose: 0.32 mg/kg/injection, schedule: Q01DX Z (ip), vehicle: carboxymethylcellulose (CMC) 121 % of control | [8] 93 % of control

CN(C)CC(=O)c1ccc(O)c(O)c1
inactive: dose: 15.6 mg/kg/injection, schedule: Q01DX Z (ip), vehicle: saline 103 % of control | dose: 31.25 mg/kg/injection, schedule: Q01DX Z (ip), vehicle: saline 109 % of control | dose: 62.5 mg/kg/injection, schedule: Q01DX Z (ip), vehicle: saline 113 % of control | dose: 125.0 mg/kg/injection, schedule: Q01DX Z (ip), vehicle: saline 109 % of control and 119 % of control | dose: 500.0 mg/kg/injection, schedule: Q01DX Z (ip), vehicle: saline 89 % of control

CCn1cnc2c(=S)nc[nH]c21
inactive: dose: 15.6 mg/kg/injection, schedule: Q01DX Z (ip), vehicle: carboxymethylcellulose (CMC) 96 % of control

COS(C)(=O)=O
inactive: [4] 87 % of control | dose: 50.0 mg/kg/injection, schedule: Q01DX Z (ip), vehicle: water 101 % of control | dose: 100.0 mg/kg/injection, schedule: Q01DX Z (ip), vehicle: water 101 % of control

Clc1ncnc2nc[nH]c12
inactive: [9] 89 % of control | [10] 101 % of control | [11] 89 % of control | dose: 31.25 mg/kg/injection, schedule: Q01DX Z (ip), vehicle: carboxymethylcellulose (CMC) 110 % of control | dose: 62.5 mg/kg/injection, schedule: Q01DX Z (ip), vehicle: carboxymethylcellulose (CMC) 101 % of control | [12] 110 % of control

N#[N+]c1cnc([O-])[nH]c1=O
inactive: [6] 96 % of control | [7] 123 % of control | [8] 103 % of control | dose: 5.0 mg/kg/injection, schedule: Q01DX Z (ip), vehicle: carboxymethylcellulose (CMC) 124 % of control | dose: 10.0 mg/kg/injection, schedule: Q01DX Z (ip), vehicle: carboxymethylcellulose (CMC) 103 % of control and 104 % of control and 110 % of control

CC[C@H](c1ccc(O)cc1)[C@@H](CC)c1ccc(O)cc1
inactive: dose: 0.5 mg/kg/injection, schedule: Q01DX Z (sc), vehicle: steriod suspending solution 103 % of control | dose: 1.0 mg/kg/injection, schedule: Q01DX Z (sc), vehicle: steriod suspending solution 108 % of control | [13] 115 % of control and 116 % of control | [14] 114 % of control | [15] 122 % of control | [16] 111 % of control | dose: 31.0 mg/kg/injection, schedule: Q01DX Z (sc), vehicle: steriod suspending solution 105 % of control | dose: 62.5 mg/kg/injection, schedule: Q01DX Z (sc), vehicle: steriod suspending solution 103 % of control and 111 % of control | dose: 125.0 mg/kg/injection, schedule: Q01DX Z (sc), vehicle: steriod suspending solution 103 % of control | dose: 250.0 mg/kg/injection, schedule: Q01DX Z (sc), vehicle: steriod suspending solution 106 % of control | dose: 500.0 mg/kg/injection, schedule: Q01DX Z (sc), vehicle: steriod suspending solution 97 % of control

C[C@]12C=CC(=O)C=C1CC[C@@H]1[C@@H]2[C@@H](O)C[C@@]2(C)[C@H]1CC[C@]2(O)C(=O)CO
inactive: [13] 97 % of control | [14] 103 % of control and 111 % of control | [15] 101 % of control and 117 % of control | [16] 95 % of control and 117 % of control | dose: 32.0 mg/kg/injection, schedule: Q01DX Z (sc), vehicle: steriod suspending solution 95 % of control

N=[N+]=CC(=O)OCC(N)C(=O)O (configuration not stated)
inactive: dose: 1.18 mg/kg/injection, schedule: Q01DX Z (ip), vehicle: saline 101 % of control | dose: 2.35 mg/kg/injection, schedule: Q01DX Z (ip), vehicle: saline 122 % of control | dose: 4.69 mg/kg/injection, schedule: Q01DX Z (ip), vehicle: saline 122 % of control | dose: 25.0 mg/kg/injection, schedule: Q01DX Z (ip), vehicle: saline 106 % of control | dose: 50.0 mg/kg/injection, schedule: Q01DX Z (ip), vehicle: saline 94 % of control
